Patent publication US7157083B2, “Compositions and methods for treating retroviral infections” (priority 1998, dated 2007)

Tested on: clinical isolate ROJO (low passage HIV-1) in human PBMCs
Experiment: Study 1 PBMC assay: reverse transcriptase activity after ROJO infection (Treatments A, B, C)
Assay type: cell-based
Procedure: Percent virus control (% VC) in the following tables is the mean RT activity (cpm) as a percentage of a virus control. Percent cell control (% CC) is the mean XTT absorbance as a percentage of a cell control.
Peripheral blood monocular cells (PBMCs) are obtained from normal hepatitis and HIV-1 negative donors by ficoll hypaque gradient separation. Briefly, anti-coagulated blood is diluted 1:1 with Dulbecco's phosphate buffered saline without Ca^++ and Mg^++ (PBS) and layered over 14 mL of Lymphocyte separation media in a 50 ml centrifuge tube. Tubes are then centrifuged for 30 minutes at 600× g. Banded PBLs are gently aspirated from the resulting interface and subsequently washed 2× with PBS by low speed centrifugation. The mononuclear cells are counted, viability determined by Trypan Blue dye exclusion and resuspended in RPM1640 medium supplemented with 15% FBS (heat inactivated), 2 mM L-glutamine, 100 U/mL penicillin, 100 μg/mL streptomycin, and 10 μg/mL gentamycin with 2 μg/mL phytohemagluttin (PHA) at 1×10^6 cells/mL. The cells are cultured for 48 to 72 h at 37° C., 5% CO2 Following incubation, cells are collected by centrifugation, washed and resuspended in RPMI 1640 supplemented with 15% FBS (heat inactivated), 2 Mm L-glutamine, 100 U/mL penicillin, 100 μg/mL streptomycin, and 10 μg/mL gentamycin with 20 U/mL recombinant IL-2 (R & D Systems, Minneapolis, Minn.). IL-2 is included in the culture medium to maintain the cell division initiated by the PHA mitogenic stimulation. The cultures are then maintained until use by ½ culture volume change with fresh IL-2 containing medium every 3 days.
Human peripheral blood mononuclear cells from a minimum of 2 donors, that have been blasted with PHA and IL-2, are counted, viability determined by Trypan Blue dye exclusion and mixed in equal ratios. Pooled donors are used to minimize the variability observed between individual donors which results from quantitative and qualitative differences in HIV infection and overall response to the PHA and IL-2 of primary lymphocyte populations. The cells are resuspended at 1×10^6 cells/mL in RPMI 1640 without phenol red supplemented with 15% Fetal Bovine Serum (heat inactivated), 2 mM L-glutamine, 100 U/mL penicillin, 100 μg/mL streptomycin, 10 μg/mL gentamycin and IL-2 (20 U/mL, R&D Systems, Minneapolis, Minn.). Fifty microliters of cells are then distributed to the inner 60 wells of a 96 well round bottom Microtiter culture plate in a standard format developed by the Infectious Disease Research department of Southern Research Institute. Each plate contains cell control wells (cells only), virus control wells (cell plus virus), and experimental wells (drug plus cells plus virus).
Using an in-house computer program, IC50 (50% inhibition of virus replication), TC50 (50% reduction in cell viability) and a therapeutic index (TI, […]) were determined. AZT was used as a relevant positive control compound for the individual assays.
This study compares the ability of hyaluronidase to AZT to lower viral replication as measured by reverse transcriptase levels. RT was measured on days 7, 14, and 21. Three different treatment regimens were used in the comparative study (Treatments A, B and C).
Treatment A. Normal mixed PHA blasted human PBMCs (5×10e4/well) were pretreated with drug every 48 hours for 3 doses. On day 6 of pretreatment, cells were infected with clinical isolate ROJO. 48 hours post infection, treatment with drugs continued for an additional 3 treatments. Samples for assay were collected on D7 (day 7), 14, 21, post infection, frozen and later analyzed for reverse transcriptase.
Treatment B. Normal mixed PHA blasted human PBMCs (as above) were plated in 96 wells and allowed to incubate for 48 hours (cells were set at same time as treatment A from same pool). Drug pretreatment started on day 2 and was repeated on day 4. On day 6, cell were infected as in treatment A, with concurrent addition of drug for a total of 3 treatments. […]

In the case of `Cc1cn([C@H]2C[C@H](N=[N+]=[N-])[C@@H](CO)O2)c(=O)[nH]c1=O` [AZT, reference compound], the “RT activity % VC” value (Treatment A, 0.00017 μM, Day 7) is reported as 47.3%, the “RT activity % VC” value (Treatment A, 0.00017 μM, Day 14) is reported as 115.4% and the “RT activity % VC” value (Treatment A, 0.00017 μM, Day 21) is reported as 164.5%. For the same compound, the “RT activity % VC” value (Treatment A, 0.00054 μM, Day 7) was 19.3%, the “RT activity % VC” value (Treatment A, 0.00054 μM, Day 14) was 99.8% and the “RT activity % VC” value (Treatment A, 0.00054 μM, Day 21) was 141.5%. The “RT activity % VC” value (Treatment A, 0.00168 μM, Day 7) was 25.1%, the “RT activity % VC” value (Treatment A, 0.00168 μM, Day 14) was 74.2% and the “RT activity % VC” value (Treatment A, 0.00168 μM, Day 21) was 135.6%. For the same compound, the “RT activity % VC” value (Treatment A, 0.00524 μM, Day 7) was 10.2%, the “RT activity % VC” value (Treatment A, 0.00524 μM, Day 14) was 78.3% and the “RT activity % VC” value (Treatment A, 0.00524 μM, Day 21) was 155.1%. For the same compound, the “RT activity % VC” value (Treatment A, 0.01638 μM, Day 7) was 11.6%, the “RT activity % VC” value (Treatment A, 0.01638 μM, Day 14) was 57.9% and the “RT activity % VC” value (Treatment A, 0.01638 μM, Day 21) was 129.5%. The “RT activity % VC” value (Treatment A, 0.0512 μM, Day 7) was 3.0%, the “RT activity % VC” value (Treatment A, 0.0512 μM, Day 14) was 40.7% and the “RT activity % VC” value (Treatment A, 0.0512 μM, Day 21) was 134.8%. The “RT activity % VC” value (Treatment A, 0.16 μM, Day 7) was 2.7%, the “RT activity % VC” value (Treatment A, 0.16 μM, Day 14) was 40.3% and the “RT activity % VC” value (Treatment A, 0.16 μM, Day 21) was 126.3%. The “RT activity % VC” value (Treatment A, 0.5 μM, Day 7) was 2.3%, the “RT activity % VC” value (Treatment A, 0.5 μM, Day 14) was 21.4% and the “RT activity % VC” value (Treatment A, 0.5 μM, Day 21) was 78.3%. The “RT activity % VC” value (Treatment A, 5.5E-05 μM, Day 7) was 77.0%, the “RT activity % VC” value (Treatment A, 5.5E-05 μM, Day 14) was 100.4% and the “RT activity % VC” value (Treatment A, 5.5E-05 μM, Day 21) was 159.7%. For the same compound, the “RT activity % VC” value (Treatment B, 0.00017 μM, Day 7) was 43.6%, the “RT activity % VC” value (Treatment B, 0.00017 μM, Day 14) was 80.8% and the “RT activity % VC” value (Treatment B, 0.00017 μM, Day 21) was 129.8%. For the same compound, the “RT activity % VC” value (Treatment B, 0.00054 μM, Day 7) was 34.2%, the “RT activity % VC” value (Treatment B, 0.00054 μM, Day 14) was 70.1% and the “RT activity % VC” value (Treatment B, 0.00054 μM, Day 21) was 111.8%. For the same compound, the “RT activity % VC” value (Treatment B, 0.00168 μM, Day 7) was 10.7%, the “RT activity % VC” value (Treatment B, 0.00168 μM, Day 14) was 57.5% and the “RT activity % VC” value (Treatment B, 0.00168 μM, Day 21) was 153.5%. The “RT activity % VC” value (Treatment B, 0.00524 μM, Day 7) was 9.3%, the “RT activity % VC” value (Treatment B, 0.00524 μM, Day 14) was 51.0% and the “RT activity % VC” value (Treatment B, 0.00524 μM, Day 21) was 109.0%. The “RT activity % VC” value (Treatment B, 0.01638 μM, Day 7) was 9.6%, the “RT activity % VC” value (Treatment B, 0.01638 μM, Day 14) was 58.0% and the “RT activity % VC” value (Treatment B, 0.01638 μM, Day 21) was 133.9%. For the same compound, the “RT activity % VC” value (Treatment B, 0.0512 μM, Day 7) was 5.4%, the “RT activity % VC” value (Treatment B, 0.0512 μM, Day 14) was 28.5% and the “RT activity % VC” value (Treatment B, 0.0512 μM, Day 21) was 158.0%. For the same compound, the “RT activity % VC” value (Treatment B, 0.16 μM, Day 7) was 3.9%, the “RT activity % VC” value (Treatment B, 0.16 μM, Day 14) was 25.7% and the “RT activity % VC” value (Treatment B, 0.16 μM, Day 21) was 93.8%. For the same compound, the “RT activity % VC” value (Treatment B, 0.5 μM, Day 7) was 5.4%, the “RT activity % VC” value (Treatment B, 0.5 μM, Day 14) was 9.5% and the “RT activity % VC” value (Treatment B, 0.5 μM, Day 21) was 87.5%. The “RT activity % VC” value (Treatment B, 5.5E-05 μM, Day 7) was 90.9%, the “RT activity % VC” value (Treatment B, 5.5E-05 μM, Day 14) was 97.0% and the “RT activity % VC” value (Treatment B, 5.5E-05 μM, Day 21) was 163.3%. For the same compound, the “RT activity % VC” value (Treatment C, 0.00017 μM, Day 7) was 67.5%, the “RT activity % VC” value (Treatment C, 0.00017 μM, Day 14) was 92.9% and the “RT activity % VC” value (Treatment C, 0.00017 μM, Day 21) was 110.1%. The “RT activity % VC” value (Treatment C, 0.00054 μM, Day 7) was 73.6%, the “RT activity % VC” value (Treatment C, 0.00054 μM, Day 14) was 92.3% and the “RT activity % VC” value (Treatment C, 0.00054 μM, Day 21) was 106.2%. For the same compound, the “RT activity % VC” value (Treatment C, 0.00168 μM, Day 7) was 45.4%, the “RT activity % VC” value (Treatment C, 0.00168 μM, Day 14) was 125.4% and the “RT activity % VC” value (Treatment C, 0.00168 μM, Day 21) was 119.1%. The “RT activity % VC” value (Treatment C, 0.00524 μM, Day 7) was 28.4%, the “RT activity % VC” value (Treatment C, 0.00524 μM, Day 14) was 74.6% and the “RT activity % VC” value (Treatment C, 0.00524 μM, Day 21) was 104.7%. The “RT activity % VC” value (Treatment C, 0.01638 μM, Day 7) was 22.1%, the “RT activity % VC” value (Treatment C, 0.01638 μM, Day 14) was 62.9% and the “RT activity % VC” value (Treatment C, 0.01638 μM, Day 21) was 119.2%. The “RT activity % VC” value (Treatment C, 0.0512 μM, Day 7) was 17.0%, the “RT activity % VC” value (Treatment C, 0.0512 μM, Day 14) was 70.5% and the “RT activity % VC” value (Treatment C, 0.0512 μM, Day 21) was 89.2%. For the same compound, the “RT activity % VC” value (Treatment C, 0.16 μM, Day 7) was 10.3%, the “RT activity % VC” value (Treatment C, 0.16 μM, Day 14) was 38.1% and the “RT activity % VC” value (Treatment C, 0.16 μM, Day 21) was 72.0%. For the same compound, the “RT activity % VC” value (Treatment C, 0.5 μM, Day 7) was 8.9%, the “RT activity % VC” value (Treatment C, 0.5 μM, Day 14) was 26.8% and the “RT activity % VC” value (Treatment C, 0.5 μM, Day 21) was 90.1%. For the same compound, the “RT activity % VC” value (Treatment C, 5.5E-05 μM, Day 7) was 88.6%, the “RT activity % VC” value (Treatment C, 5.5E-05 μM, Day 14) was 109.2% and the “RT activity % VC” value (Treatment C, 5.5E-05 μM, Day 21) was 198.4%.
